Measured values as given in US9545392B2, “Carrier comprising a vitamin E derivative” (UCL BUSINESS PLC, priority 2007, dated 2017).

Tests used:
[1] = type: in vivo; conditions: rat, tail vein, 2 hours; 300 μl of 5% free or 1 ml of 0.2% encapsulated
Procedure: 300 μl of 5% fluorescein sodium or 1 ml of 0.2% encapsulated fluorescein sodium, were administered to the rat through the tail vain and the retina monitored. Free fluorescein was removed by use of ultracentrifugation and PD-10; columns as outlined earlier. After 2 hours; under general anaesthesia, the animals underwent fixation perfusion with 4% paraformaldehyde. Brains were stored in 4% paraformaldehyde overnight, following which 800 um slices were cut and examined under fluorescent confocal microscopy.
The images in FIG. 24 come from similar regions in the brain from an animal with intravenous encapsulated fluorescein sodium (A-B) compared to one with plain intravenous fluorescein sodium (C-D). Both fluorescence (A, C) and transmission (B, D) images are shown. […] This confirms the fact that encapsulation allows the fluorescein sodium to cross the BBB.
The appearance of fluorescent patches or “monofocal leakages” of sodium flourescein is similar to that that has been described when BBB disruption occurs in the brain, as discussed earlier (Natah, S. S. et al. J Appl Physiol 107: 1348-1356 2009).

[2] = type: in vivo; conditions: rat, tail vein; 300 μl of 5% free or 1 ml of 0.2% encapsulated
Procedure: 300 μl of 5% fluorescein sodium or 1 ml of 0.2% encapsulated fluorescein sodium, were administered to the rat through the tail vain and the retina monitored. Free fluorescein was removed by use of ultracentrifugation and PD-10 columns as outlined earlier.
It is important to highlight that the retinal blood vessels were not seen with the encapsulated material (A-C) as they are without (D-F), although there is a hint of arterial wall fluorescence in the encapsulated treated eye at 34 minutes (B). […] They were absent from the non-encapsulated eyes. These focal patches of fluorescence are believed to be intact liposomes containing fluorescein. […] The appearance, of fluorescent patches or “monofocal leakages” of sodium flourescein is similar to that that has been described when BBB disruption occurs in the brain (see FIG. 20 from Natah, S. S. et al. J Appl Physiol 107: 1348-1356 2009).

[3] = type: in vivo; conditions: intravitreal injection, eyes imaged after 3 hours
Procedure: To access the release of encapsulated material, liposomes containing encapsulated αBT and annexin V-776 were administered via Intravitreal injection and the eyes were imaged after 3 hours.

[4] = In vivo labelling of retinal vasculature by alpha-bungarotoxin
Text: The invention also provides alpha-bungarotoxin (αBT) for use in labelling the retinal vasculature of a subject. This is in vivo labelling. αBT is know to bind to nicotinic acetylcholine receptors (nAChRs) and is readily used to label the end plate of neuromuscular junctions ex vivo. It has not been applied to labelling in vivo due to it's potential neuromuscular inhibitory effects when used systemically. However, such problems are not seen when using it directly in the eye. The wall of the retinal vasculature, and in particular the arteries, is a muscular environment housing nAChRs. Therefore, αBT labels them specifically. This patterned labelling in the eye is something that is otherwise very difficult to achieve. Preferably, the αBT is administered directly to the retinal vasculature of the eye, for example, by intravitreal injection. Preferably, the αBT is labelled with an imaging moiety such as fluorescein.

## O=C1OC2(c3ccc(O)cc3Oc3cc(O)ccc32)c2ccccc21 [Fluorescein, fluorescein sodium]
[1]
  fluorescence in brain slices: no signal at all
[2]
  crossing of the blood retinal barrier: unable to cross an intact blood retinal barrier and remains isolated to the vessels

## Annexin V-776: labelled annexin V, anionic phospholipid binding protein, given with liposomes
[3]
  release of cargo from liposomes: successful release

## alpha-bungarotoxin [αBT]
[4]
  labelling of retinal vessels: specifically labels the arteries in the retina
